# Test results as given in patent US6608069B1, “Phenyl xanthine derivatives” (SmithKline Beecham Corporation, priority 1998, dated 2003).
# Test system: cytokine-stimulated human umbilical vein endothelial cells
# Assay: Cell Adhesion Assay: adherence of fluorescently-labelled leukocytes to endothelial cell monolayers
# Assay type: cell-based
# Settings: inhibition of cytokine-stimulated adhesion minus basal adhesion; calcein-AM labelled leukocytes on HUVEC monolayers
# Method: The antiadhesion activity of compounds of the invention was determined using a modification of the previously described method, Jurgensen, C. H. et. al., J. Immunol. 144: 653-661. The adhesiveness of cytokine-stimulated human umbilical vein endothelial cells was assessed by quantitating the adherence of fluorescently-labelled (calcein-AM, Molecular Probes, Eugene, Oreg.) leukocytes to endothelial cell monolayers. Activity was determined by calculating inhibition of cytokine-stimulated adhesion minus the basal adhesion (unstimulated).
row,IC50 [µM],Compound
1,0.029 ± 0.003,"COCCOCCOCCOCCOCCOCCOCCOCCOCCOC(=O)/C=C/c1ccc(-c2nc3c(=O)n(CC4CCCCC4)c(=O)n(CC4CCCCC4)c3[nH]2)cc1 [Example 35, (E)-4-[1,3-Bis(cyclohexylmethyl)-1,2,3,6-tetrahydro-2,6-dioxo-9H-purin-8-yl)cinnamic Acid Nonaethylene Glycol Methyl Ether Ester]"
2,0.15 ± 0.083,"COCCOCCOCCOCCOCCOCCOCCOCCOCCOC(=O)/C=C/c1ccc(-c2nc3c(=O)n(CC4CC4)c(=O)n(CC4CC4)c3[nH]2)cc1 [Example 38, (E)-4-(1,3-bis(cyclopropylmethyl)-1,2,3,6-tetrahydro-2,6-dioxo-9H-purin-8-yl)cinnamic Acid Nonaethylene Glycol Methyl Ether Ester]"
3,0.0071 ± 0.002,"COCCOCCOCCOCCOCCOCCOCCOCCOCCOC(=O)/C=C/c1ccc(-c2nc3c(=O)n(CC(C)C)c(=O)n(CC(C)C)c3[nH]2)cc1 [Example 43, (E)-4-(1,3-bis(2-methylpropyl)-1,2,3,6-tetrahydro-2,6-dioxo-9H-purin-8-yl)cinnamic Acid Nonaethylene Glycol Methyl Ether Ester]"
4,0.89 ± 0.42,"COCCOCCOCCOCCOCCOCCOCCOCCOCCOC(=O)/C=C/c1cccc(-c2nc3c(=O)n(Cc4ccccc4)c(=O)n(Cc4ccccc4)c3[nH]2)c1 [Example 46, (E)-3-(1,3-bis(benzyl)-1,2,3,6-tetrahydro-2,6-dioxo-9H-purin-8-yl)cinnamic Acid Nonaethylene Glycol Methyl Ether Ester]"
5,0.039 ± 0.013,"COCCOCCOCCOCCOCCOCCOCCOCCOCCOC(=O)/C=C/c1ccc(-c2nc3c(=O)n(Cc4cccc(F)c4)c(=O)n(Cc4cccc(F)c4)c3[nH]2)cc1 [Example 53, (E)-4-(1,3-bis(3-fluorobenzyl)-1,2,3,6-tetrahydro-2,6-dioxo-9H-purin-8-yl)cinnamic Acid Nonaethylene Glycol Methyl Ether Ester]"
6,0.051 ± 0.045,"COCCOCCOCCOCCOCCOCCOCCOCCOCCOC(=O)/C=C/c1ccc(-c2nc3c(=O)n(CCc4ccccc4)c(=O)n(CCc4ccccc4)c3[nH]2)cc1 [Example 55, (E)-4-(1,3-bis(2-phenylethyl)-1,2,3,6-tetrahydro-2,6-dioxo-9H-purin-8-yl)cinnamic Acid Nonaethylene Glycol Methyl Ether Ester]"
7,0.16 ± 0.07,"COCCOCCOCCOCCOCCOCCOCCOCCOCCOC(=O)/C=C/c1ccc(-c2nc3c(=O)n(CC4CCCCC4)c(=O)n(C)c3[nH]2)cc1 [Example 56, (E)-4-((1-cyclohexylmethyl-3-methyl)-1,2,3,6-tetrahydro-2,6-dioxo-9H-purin-8-yl)cinnamic Acid Nonaethylene Glycol Methyl Ether Ester]"
8,0.011 ± 0.004,"COCCOCCOCCOCCOCCOCCOCCOCCOCCOC(=O)/C=C/c1ccc(-c2nc3c(=O)n(CC4CCC4)c(=O)n(CC4CCC4)c3[nH]2)cc1 [Example 61, (E)-4-(1,3-bis(cyclobutylmethyl)-1,2,3,6-tetrahydro-2,6-dioxo-9H-purin-8-yl)cinnamic Acid Nonaethylene Glycol Methyl Ether Ester]"
9,0.055 ± 0.034,"COCCOCCOCCOCCOCCOCCOCCOCCOCCOC(=O)/C=C/c1ccc(-c2nc3c(=O)n(C)c(=O)n(CC(C)C)c3[nH]2)cc1 [Example 63, (E)-4-(1-methyl-3-(2-methylpropyl)-1,2,3,6-tetrahydro-2,6-dioxo-9H-purin-8-yl)cinnamic Acid Nonaethylene Glycol Methyl Ether Ester]"

# Further lines, the compound ahead of its results:
row,Compound,IC50 [µM]
1,"CCCn1c(=O)c2nc(-c3ccc(/C=C/C(=O)OCCOCCOCCOCCOCCOCCOCCOCCOCCOC)cc3)[nH]c2n(CCC)c1=O [Example 37, (E)-4-(1,3-bis(propyl)-1,2,3,6-tetrahydro-2,6-dioxo-9H-purin-8-yl)cinnamic Acid Nonaethylene Glycol Methyl Ether Ester]",0.098 ± 0.033
2,"CCCn1c(=O)c2nc(-c3cccc(/C=C/C(=O)OCCOCCOCCOCCOCCOCCOCCOCCOCCOC)c3)[nH]c2n(Cc2ccccc2)c1=O [Example 39, (E)-3-((1-propyl-3-benzyl)-1,2,3,6-tetrahydro-2,6-dioxo-9H-purin-8-yl)cinnamic Acid Nonaethylene Glycol Methyl Ether Ester]",0.13 ± 0.08
3,"COCCOCCOCCOCCOCCOCCOCCOCCOCCOC(=O)/C=C/c1ccc(-c2nc3c(=O)n(CC4CCCCCC4)c(=O)n(CC4CCCCCC4)c3[nH]2)cc1 [Example 40, (E)-4-(1,3-bis(cycloheptylmethyl)-1,2,3,6-tetrahydro-2,6-dioxo-9H-purin-8-yl)cinnamic Acid Nonaethylene Glycol Methyl Ether Ester]",0.014 ± 0.007
4,"COCCOCCOCCOCCOCCOCCOCCOCCOCCOC(=O)/C=C/c1ccc(-c2nc3c(=O)n(CCC4CCCCC4)c(=O)n(CCC4CCCCC4)c3[nH]2)cc1 [Example 41, (E)-4-(1,3-bis(2-cyclohexylethyl)-1,2,3,6-tetrahydro-2,6-dioxo-9H-purin-8-yl)cinnamic Acid Nonaethylene Glycol Methyl Ether Ester]",0.021 ± 0.012
5,"COCCOCCOCCOCCOCCOCCOCCOCCOCCOC(=O)/C=C/c1ccc(-c2nc3c(=O)n(-c4ccccc4)c(=O)n(-c4ccccc4)c3[nH]2)cc1 [Example 42, (E)-4-(1,3-bis(phenyl)-1,2,3,6-tetrahydro-2,6-dioxo-9H-purin-8-yl)cinnamic Acid Nonaethylene Glycol Methyl Ether Ester]",0.012 ± 0.012
6,"COCCOCCOCCOCCOCCOCCOCCOCCOCCOC(=O)/C=C/c1ccc(-c2nc3c(=O)n(CC4CC5CCC4C5)c(=O)n(CC4CC5CCC4C5)c3[nH]2)cc1 (stereo not shown) [Example 45, (E)-4-(1,3-bis(bicyclo(2.2.1)hept-2-ylmethyl)-1,2,3,6-tetrahydro-2,6-dioxo-9H-purin-8-yl)cinnamic Acid Nonaethylene Glycol Methyl Ether Ester]",0.042 ± 0.024
7,"COCCOCCOCCOCCOCCOCCOCCOCCOCCOC(=O)/C=C/c1ccc(-c2nc3c(=O)n(C)c(=O)n(C)c3[nH]2)cc1 [Example 47, (E)-4-(1,3-bis(methyl)-1,2,3,6-tetrahydro-2,6-dioxo-9H-purin-8-yl)cinnamic Acid Nonaethylene Glycol Methyl Ether Ester]",0.71 ± 0.41
8,CCCCn1c(=O)n(CC2CCCCC2)c(=O)c2nc(-c3ccc(/C=C/C(=O)OCCOCCOCCOCCOCCOCCOCCOCCOCCOC)cc3)[nH]c21 [Example 48],< 0.0001
9,"COCCOCCOCCOCCOCCOCCOCCOCCOCCOC(=O)/C=C/c1ccc(-c2nc3c(=O)n(Cc4ccccc4)c(=S)n(Cc4ccccc4)c3[nH]2)cc1 [Example 50, (E)-4-(1,3-bis(benzyl)-1,2,3,6-tetrahydro-2-thioxo-6-oxo-9H-purin-8-yl)cinnamic Acid Nonaethylene Glycol Methyl Ether Ester]",0.27 ± 0.15
10,"COCCOCCOCCOCCOCCOCCOCCOCCOCCOC(=O)/C=C/c1ccc(-c2nc3c(=O)n(C)c(=O)n(Cc4ccc(C#N)cc4)c3[nH]2)cc1 [Example 51, (E)-4-(1-methyl-3-(4-cyanobenzyl)-1,2,3,6-tetrahydro-2,6-dioxo-9H-purin-8-yl)cinnamic Acid Nonaethylene Glycol Methyl Ether Ester]",> 2
11,"COCCOCCOCCOCCOCCOCCOCCOCCOCCOC(=O)/C=C/c1ccc(-c2nc3c(=O)n(C)c(=O)n(Cc4cccc(C#N)c4)c3[nH]2)cc1 [Example 52, (E)-4-(1-methyl-3-(3-cyanobenzyl)-1,2,3,6-tetrahydro-2,6-dioxo-9H-purin-8-yl)cinnamic Acid Nonaethylene Glycol Methyl Ether Ester]",0.41 ± 0.06
12,"COCCOCCOCCOCCOCCOCCOCCOCCOCCOC(=O)/C=C/c1ccc(-c2nc3c(=O)n(Cc4ccccc4F)c(=O)n(Cc4ccccc4F)c3[nH]2)cc1 [Example 54, (E)-4-(1,3-bis(2-fluorobenzyl)-1,2,3,6-tetrahydro-2,6-dioxo-9H-purin-8-yl)cinnamic Acid Nonaethylene Glycol Methyl Ether Ester]",0.076 ± 0.028
13,COCCOCCOCCOCCOCCOCCOCCOCCOCCOC(=O)/C=C/c1ccc(-c2nc3c(=O)[nH]c(=O)n(CC(C)C)c3[nH]2)cc1 [Example 57],0.083 ± 0.041
14,"COCCOCCOCCOCCOCCOCCOCCOCCOCCOC(=O)/C=C/c1ccc(-c2nc3c(=O)n(Cc4ccc(F)cc4)c(=O)n(Cc4ccc(F)cc4)c3[nH]2)cc1 [Example 58, (E)-4-(1,3-bis(4-fluorobenzyl)-1,2,3,6-tetrahydro-2,6-dioxo-9H-purin-8-yl)cinnamic Acid Nonaethylene Glycol Methyl Ether Ester]",< 0.0001
15,"CCCCCCCCCCCCOCCOCCOCCOCCOCCOCCOC(=O)/C=C/c1ccc(-c2nc3c(=O)n(CC4CCCCC4)c(=O)n(CC4CCCCC4)c3[nH]2)cc1 [Example 59, (E)-4-(1,3-bis(cyclohexylmethyl)-1,2,3,6-tetrahydro-2,6-dioxo-9H-purin-8-yl)cinnamic Acid Hexaethylene Glycol dodecyl Ether Ester]",0.057 ± 0.024
16,"CCCn1c(=O)c2nc(-c3cccc(/C=C/C(=O)OCCOCCOCCOCCOCCOCCOCCOCCOCCOC)c3)[nH]c2n(CCC)c1=O [Example 60, (E)-3-(1,3-bis(propyl)-1,2,3,6-tetrahydro-2,6-dioxo-9H-purin-8-yl)cinnamic Acid Nonaethylene Glycol Methyl Ether Ester]",> 1
17,COCCOCCOCCOCCOCCOCCOCCOCCOCCOC(=O)/C=C/c1ccc(-c2nc3c(=O)n(C)c(=O)n(CC4CCCCC4)c3[nH]2)cc1 [Example 62],0.16 ± 0.085
18,"COCCOCCOCCOCCOCCOCCOCCOCCOCCOC(=O)/C=C/c1ccc(-c2nc3c(=O)n(Cc4cccnc4)c(=O)n(Cc4cccnc4)c3[nH]2)cc1 [Example 64, (E)-4-(1,3-Bis(3-pyridinylmethyl)-1,2,3,6-tetrahydro-2,6-dioxo-9H-purin-8-yl)cinnamic Acid Nonaethylene Glycol Methyl Ether Ester]",> 1
19,"COCCOCCOCCOCCOCCOCCOCCOCCOCCOC(=O)c1ccc(-c2nc3c(=O)n(CC4CCCCC4)c(=O)n(CC4CCCCC4)c3[nH]2)cc1 [Example 65, 4-(1,3-bis(cyclohexylmethyl)-1,2,3,6-tetrahydro-2,6-dioxo-9H-purin-8-yl)benzoic Acid Nonaethylene Glycol Methyl Ether Ester]",0.048 ± 0.019
